Assay results reported in patent US11174237B2, “2-[4-(meihylaminomethyl)phenyl]-5-fluoro- benzofuran-7-carboxamide hydrochloride polymorph, preparation method therefor and application thereof” (SHANGHAI INSTITUTE OF MATERIA MEDICA, CHINESE ACADEMY OF …, priority 2017, dated 2021).

Assay: Thermogravimetric analysis (TGA) of the crystal forms
Type: physicochemical
Description: 4) TGA method Instrument model: Netzsch TG 209F3, temperature range 30-400° C., scan rate 10K/min, purge gas flow rate 25 mL/min, shielding gas flow rate 15 mL/min.

Row | temperature at which the crystal form begins to decompose according to the thermogravimetric analysis (TG, 30-400° C., scan rate 10K/min) [°C] | thermal stability (conclusion from the DSC/TG experimental results) | SMILES
1 | 250±20 |  | CNCc1ccc(-c2cc3cc(F)cc(C(N)=O)c3o2)cc1.Cl [crystal form C, 2-[4-(methylaminomethyl)phenyl]-5-fluoro-benzofuran-7-carboxamide hydrochloride]
2 |  | good thermal stability | CNCc1ccc(-c2cc3cc(F)cc(C(N)=O)c3o2)cc1.Cl [crystal form A, 2-[4-(methylaminomethyl)phenyl]-5-fluoro-benzofuran-7-carboxamide hydrochloride]
